According to patent US20010005752A1, “Fluorescent dyes (AIDA) for solid phase and solution phase screening” (priority 1998, published 2001):

What was measured:
Type in all cases: physicochemical
[1] = UV-Vis absorption spectroscopy; details: for Absorption λmax / ε (at absorption λmax): acetonitrile/2% DMSO
Experimental: UV-Vis absorption spectroscopy is performed on a Cary 1E spectrophotometer. […]
[…] […] From each stock solution, 5 dilutions with concentrations of 2.5 μm, 10 μM, 17 μM, 25 μm and 35 μM are made. UV-spectra of each dilution are recorded from 200 to 400 nm, using a quarz cuvette with a pathlength of 1 cm. […] A linear fit is carried out for each series of measurements. The extinction coefficient ε at 337 nm is given by the slope of the linear regression.

[2] = Steady-state fluorescence spectroscopy (excitation and emission spectra); details: for Emission range in parenthesis / Emission λmax / Excitation range in parenthesis / Excitation λmax: acetonitrile/2% DMSO
Experimental: Steady-state fluorescence measurements are performed on a SLM 8000C spectro-fluorometer equipped with JD490 photomultipliers and a 450 W Xenon Arclamp (SLM Instruments, Urbana, Ill.).
[…] Spectral bandwidths are set to 1 and 4 nm for excitation and emission, respectively. Spectra are recorded in single photon counting mode. Changes in lamp intensity are corrected with a quantum counter in the reference channel, measured in slow mode. Gain is set to x 100 with a high voltage (HV) of 640 V. Integration time is 2 seconds. For excitation spectra measurements, the emission wavelength is set to 397 nm and the sample is excited from 200 to 400 nm. For recording emission spectra, the sample is excited at 342 nm and the emission is recorded from 350 to 540 nm. The data are averaged over two scans.

[3] = Quantum yield determination with chininsulfate as standard; details: 25 μM in THF
Experimental: The quantum yield of 4e is determined using chininsulfate as a standard [Melhuish, 1961].
The point of intersection between the UV spectra of 4e and chininsulfate (CS) is determined by measurements of a solution of the two substances on a Cary 1E spectrophotometer. Concentrations were 25 μM in THF for 4e and 50 mM in 1N H2SO4 for CS. Spectra are recorded from 260 nm to 380 nm using a quartz cuvette with an optical pathlength of 10 mm, and blank corrected by subtracting the solvent absorption. The point of intersection of the two resulting UV spectra is determined to be at 348.3 nm, corresponding to 352.8 nm on the SLM-8000 C fluorometer due to monochromator shifts. The fluorescence emission spectra of 4e and CS are recorded using the same solutions as for the UV-measurements in single photon counting mode. Lamp intensity changes are corrected with a quantum counter in the reference channel, measured in slow mode. Gain is set at x 100, high voltage applied was 830 V. Integration time was 0.5 seconds.
Spectral bandwidths are set at 1 nm for excitation, 2 nm and 4 nm for emission.
For the recording of the emission spectra, excitation is set to 352.8 and emission is monitored from 360 to 550 nm for IAE and 360 to 650 nm for CS.

[4] = Calculation of R0 (Förster distance) between 4e and NATA; details: 4e acceptor, NATA donor, THF
Experimental: The emission spectrum of NATA is measured at a concentration of 15 μM in THF, using a 750 μl quartz cuvette with an optical pathlength of 10 mm. Measuring mode is single photon counting. Changes in lamp intensity are corrected using a quantum counter in the reference channel. The gain is set at x 100, the high voltage applied was 640 V and the integration time is 2 seconds. The fluorescence emission is corrected for photometric accuracy of the system by multiplication with correction factors obtained by standard lamp calibration. Slit widths are set at 1 nm and 4 nm for excitation and emission, respectively. […] R0 is calculated using the formula R0=(9.97×10^3)(Jκ^2η^-4 θNATA)^1/6 Å where κ^2 is an orientation factor of the relative orientation in space of the transition dipoles of the donor and acceptor chromophores. […] J is the spectral overlap integral which can be approximated from […](λ)λ^4Δλ (2) where FNATA is the corrected fluorescence emission of the donor, the sum normalized to unity, ε4e is the extinction coefficient of the acceptor at wavelength λ, and DS is the incremental detection range.

[5] = Picosecond time-resolved fluorescence spectroscopy (fluorescence lifetime); details: 25 μM in THF, emission 400 nm
Experimental: Picosecond time-resolved fluorescence measurements are recorded according to the single photon counting technique [Lakowicz, 1983 p 52-93, 112-153, 156-185]. An Ar^+-pumped Ti:Sapphire laser (model MIRA 900, Coherent, Santa Clara, USA) provided under mode-locked conditions ultrashort pulses (FWHM=150 fs) with a frequency of 75 MHz. To reduce the repetition rate to 4.7 MHz, a pulse picker (model 9200, Coherent, Santa Clara, USA) is inserted into the beam. […] Fluorescence photons are collected in a Spex 1681 single grating monochromator (Spex, Edison, USA) and detected with the Hamamatsu R3809U microchannel plate (Hamamatsu, Shimokanzo, Japan). […] The voltage values which correspond to the time passed between excitation and emission of a fluorescence photon in a single experiment are stored in the Spectrum Master 921 (Ortec, Oak Ridge, USA) which is connected to the multichannel emulation program Maestro (Ortec, Oak Ridge, USA). […]
where A represents the background noise of the experiment, bi represent the pre-exponential terms of the according fluorescence lifetimes τi, and δt is an optional temporal shift term to compensate for shifts of the instrument response. […]
The time resolved decay of 4e is determined at a concentration of 25 μM in THF. Excitation is from 350 nm 380 nm, fluorescence emission is detected at 400 nm with slit widths set to 0.5 nm. […]

Absorption λmax [1] [nm]	ε (at absorption λmax) [1] [M⁻¹ cm⁻¹]	Emission range in parenthesis [2]	Emission λmax [2] [nm]	Excitation range in parenthesis [2]	Excitation λmax [2] [nm]	absorption maximum ([1]; THF) [nm]	absorption coefficient ε at 337 nm ([1]; THF, 337 nm) [M⁻¹ cm⁻¹]	maximal emission intensity (wavelength) ([2]; 1 μM in THF, excitation at 342 nm) [nm]	Stoke shift ([2]; THF)	quantum yield [3]	R0 (Förster distance) of the dye pair with NATA [4]	fluorescence lifetime (mono-exponential decay) [5] [nsec]	relative amplitude of lifetime component [5] [%]	fluorescence emission (relative to 1,3-diaryl-1H-indazoles) [2]	Compound	photophysical and photochemical stability [2]
354	25482	470-670 nm	554	320-400 nm	368										O=C(O)c1ccc(-n2nc(-c3ccc([N+](=O)[O-])cc3)c3ccccc32)cc1 [4f]	
327	27650	370-600 nm	439	300-350 nm	330										COc1ccc(-c2nn(-c3ccc(C(=O)O)cc3)c3cc(OC)ccc23)cc1 [4h]	
326	17252	450-620 nm	527	310-360 nm	331										NC(=O)c1ccc(-c2nn(-c3ccc(C(=O)O)cc3)c3ccc([N+](=O)[O-])cc23)cc1 [4l, 4-[3-(4-carbamoyl-phenyl)-5-nitro-1H-indazol-1-yl]-benzoic Acid]	
334	33114	360-500 nm	396	300-360 nm	336										COC(=O)c1ccc(-c2nn(-c3ccc(C(=O)O)cc3)c3ccccc23)cc1 [4d]	
328	29157	350-450 nm	364	310-350 nm	328										O=C(O)c1ccc(-n2nc(-c3ccc(Cl)cc3)c3ccc(Cl)cc32)cc1 [4g]	
358	24967	490-700 nm	565	340-420 nm	370										Cc1ccc2c(-c3ccc([N+](=O)[O-])cc3)nn(-c3ccc(C(=O)O)cc3)c2c1 [4j]	
335	34134	360-480 nm	398	310-360 nm	337	342	29926	403	about 60 nm	0.591	25.2 - 26.3 Å	1.055±0.117	99.73		C=CCOC(=O)c1ccc(-c2nn(-c3ccc(C(=O)O)cc3)c3ccccc23)cc1 [4e, 4-[3-(4-allyloxycarbonylphenyl)-1H-indazol-1-yl]-benzoic acid]	photophysically and photochemically stable
334	29152	360-500 nm	396	300-360 nm	335										O=C(O)c1ccc(-c2nn(-c3ccc(C(=O)O)cc3)c3ccccc23)cc1 [4b, 1,3-Bis-(4-carboxyphenyl)-1H-indazole]	
328	22569	360-450 nm	396	300-340 nm	328										O=C(O)c1ccc(-n2nc(-c3ccccc3)c3ccccc32)cc1 [4a]	
														dramatically reduced	O=C(O)c1ccc(-n2nc(-c3ccccc3)c3ccc4ccccc4c32)cc1 [4-(3-phenyl-benzo[g]indazol-1-yl)-benzoic acid, reference compound]	
361	31261	470-670 nm	551	320-420 nm	374										O=C(O)c1ccc(-c2nn(-c3ccc([N+](=O)[O-])cc3)c3ccccc23)cc1 [4i]	
328	22622	450-620 nm	524	320-360 nm	331										O=C(O)c1ccc(-c2nn(-c3ccc(C(=O)O)cc3)c3ccc([N+](=O)[O-])cc23)cc1 [4k, 4-[3-(4-carboxy-phenyl)-5-nitro-1H-indazol-1-yl]-benzoic Acid]	
332	30665	360-500 nm	393	300-360 nm	334										NC(=O)c1ccc(-c2nn(-c3ccc(C(=O)O)cc3)c3ccccc23)cc1 [4c, 4-[3-(4-carbamoyl-phenyl)-1H-indazol-1-yl]-benzoic acid]	
